In patent publication US12209102B2, “Heterocyclic compounds and uses thereof” (Kumquat Biosciences Inc., priority 2022, dated 2025):
One block for each compound: values may come before it.

Assays:
[1] = biological target: T1, K-Ras G12D (Homo sapiens, UniProt P01116, G12D); assay: HTRF resonance energy transfer assay, K-Ras G12D / SOS1 interaction; type: biochemical; details: HTRF assay of Example 5; read-out: IC50 against K-Ras G12D
T1 construct: made in house; host or cells: E. coli BL21 (DE3)
T1 sequence (P01116 1-188 isoform P01116-2 G12D): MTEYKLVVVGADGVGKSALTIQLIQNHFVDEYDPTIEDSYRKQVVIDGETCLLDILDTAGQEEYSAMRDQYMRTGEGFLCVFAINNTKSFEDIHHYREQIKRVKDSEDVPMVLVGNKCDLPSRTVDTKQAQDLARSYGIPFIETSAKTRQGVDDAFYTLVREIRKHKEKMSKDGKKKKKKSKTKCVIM
In short: (§1)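 Buffer about 5 mM HEPES pH 7.4 with ~150 mM NaCl, ~1 mM DTT, 0.05% BSA, 0.0025% (v/v) Igepal. Protein constructs used at molarity matching the IC50 range studied (e.g. ~500 nM). FRET between tagged K-Ras and hSOS1 measured after short incubation.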

[2] = system: GP2D cells; assay: Ras cellular assay, growth of cells with K-Ras G12D mutation (CellTiter-Glo); type: cell-based; details: cell growth, Example 9, G12D mutation, read-out: IC50 against GP2D cells
[3] = biological target: T2, K-Ras G12V (Homo sapiens, UniProt P01116, G12V); assay: HTRF resonance energy transfer assay, K-Ras G12V / SOS1 interaction; type: biochemical; details: HTRF assay of Example 5; read-out: IC50 against K-Ras G12V
T2 construct: made in house; host or cells: E. coli BL21 (DE3)
T2 sequence (P01116 1-188 isoform P01116-2 G12V): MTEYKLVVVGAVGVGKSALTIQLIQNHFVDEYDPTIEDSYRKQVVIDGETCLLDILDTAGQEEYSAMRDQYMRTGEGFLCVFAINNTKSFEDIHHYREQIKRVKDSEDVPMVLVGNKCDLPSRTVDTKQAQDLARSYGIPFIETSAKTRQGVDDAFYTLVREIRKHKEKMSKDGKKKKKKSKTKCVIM
In short: as §1

[4] = biological target: T3, K-Ras G12S (Homo sapiens, UniProt P01116, G12S); assay: HTRF resonance energy transfer assay, K-Ras G12S / SOS1 interaction; type: biochemical; details: HTRF assay of Example 5; read-out: IC50 against K-Ras G12S
T3 construct: made in house; host or cells: E. coli BL21 (DE3)
T3 sequence (P01116 1-188 isoform P01116-2 G12S): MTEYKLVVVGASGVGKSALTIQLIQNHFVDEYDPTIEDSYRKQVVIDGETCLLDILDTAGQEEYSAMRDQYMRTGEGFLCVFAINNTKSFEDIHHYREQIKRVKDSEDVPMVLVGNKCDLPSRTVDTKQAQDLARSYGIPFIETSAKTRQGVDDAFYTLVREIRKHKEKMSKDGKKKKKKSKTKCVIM
In short: as §1

[5] = system: A549 cells; assay: Ras cellular assay, growth of cells with K-Ras G12S mutation (CellTiter-Glo); type: cell-based; details: Homo sapiens, cell growth, Example 9, G12S mutation, read-out: IC50 against A549 cells
In short: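 Growth inhibition IC50 values come from four-parameter fits of CellTiter-Glo luminescence, read about 6 days after compound addition. G12S-mutant A549 cells (e.g. 800/well, RPMI-1640 + 10% heat-inactivated FBS) were plated in tissue-culture-treated or ultra-low-attachment 384-well format. Dosing began the following day with serial dilutions, e.g. 10 points, 3-fold.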

[6] = system: SW620 cells; assay: Ras cellular assay, growth of cells with K-Ras G12V mutation (CellTiter-Glo); type: cell-based; details: Homo sapiens, SW-620; cell growth, Example 9, G12V mutation; read-out: IC50 against SW620 cells
In short: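 IC50 values came from a four-parameter fit of CellTiter-Glo viability, read roughly 6 days after dosing with e.g. a 10-point threefold dilution series. G12V-mutant SW620 cells (e.g. 800 per well) had been plated the previous day in RPMI-1640/10% heat-inactivated FBS, on tissue culture-treated or ultra-low attachment plates.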

[7] = biological target: T4, K-Ras WT (Homo sapiens, UniProt P01116); assay: HTRF resonance energy transfer assay, K-Ras WT / SOS1 interaction; type: biochemical; details: HTRF assay of Example 5; read-out: IC50 against K-Ras WT
T4 construct: made in house; host or cells: E. coli BL21 (DE3)
T4 sequence (P01116 1-188 isoform P01116-2): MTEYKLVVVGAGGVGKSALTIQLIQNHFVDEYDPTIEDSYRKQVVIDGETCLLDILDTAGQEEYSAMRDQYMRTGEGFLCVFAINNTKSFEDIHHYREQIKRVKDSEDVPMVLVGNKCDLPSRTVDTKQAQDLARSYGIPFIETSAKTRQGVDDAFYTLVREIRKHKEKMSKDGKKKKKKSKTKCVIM
In short: as §1

SMILES: N#Cc1c(N)sc2c(F)ccc(-c3c(Cl)c4c5c(nc(OC[C@@]67CCCN6C[C@H](F)C7)nc5c3F)N(C3CCN(C(=O)[C@H]5CCCO5)C3)CCO4)c12 (stereo partly drawn) [Compound 705, 2-amino-4-(8-chloro-10-fluoro-2-(((2R,7aS)-2-fluorotetrahydro-1H-pyrrolizin-7a(5H)-yl)methoxy)-4-(1-((R)-tetrahydrofuran-2-carbonyl)pyrrolidin-3-yl)-5,6-dihydro-4H-[1,4]oxazepino[5,6,7-de]quinazolin-9-yl)-7-fluorobenzo[b]thiophene-3-carbonitrile]
IC50 [1]: < 100 nM
IC50 [2]: < 500 nM
IC50 [3]: < 100 nM
IC50 [4]: < 100 nM
IC50 [5]: < 5000 nM
IC50 [6]: < 5000 nM
IC50 [7]: < 100 nM

SMILES: N#Cc1c(N)sc2c(F)ccc(-c3c(Cl)c4c5c(nc(OC[C@@]67CCCN6C[C@H](F)C7)nc5c3F)N(CC(F)(F)F)CCO4)c12 [Compound 721, 2-amino-4-(8-chloro-10-fluoro-2-(((2R,7aS)-2-fluorotetrahydro-1H-pyrrolizin-7a(5H)-yl)methoxy)-4-(2,2,2-trifluoroethyl)-5,6-dihydro-4H-[1,4]oxazepino[5,6,7-de]quinazolin-9-yl)-7-fluorobenzo[b]thiophene-3-carbonitrile]
IC50 [1]: < 100 nM
IC50 [2]: < 500 nM
IC50 [3]: < 100 nM
IC50 [4]: < 100 nM
IC50 [5]: < 5000 nM
IC50 [6]: < 5000 nM
IC50 [7]: < 100 nM

SMILES: CN(C)C1(CN2CCOc3c(Cl)c(-c4ccc(F)c5sc(N)c(C#N)c45)c(F)c4nc(OC[C@@]56CCCN5C[C@H](F)C6)nc2c34)CC1 [Compound 725, 2-amino-4-(8-chloro-4-((1-(dimethylamino)cyclopropyl)methyl)-10-fluoro-2-(((2R,7aS)-2-fluorotetrahydro-1H-pyrrolizin-7a(5H)-yl)methoxy)-5,6-dihydro-4H-[1,4]oxazepino[5,6,7-de]quinazolin-9-yl)-7-fluorobenzo[b]thiophene-3-carbonitrile]
IC50 [1]: < 100 nM
IC50 [2]: < 500 nM
IC50 [3]: < 100 nM
IC50 [4]: < 100 nM
IC50 [5]: < 5000 nM
IC50 [6]: < 5000 nM
IC50 [7]: < 100 nM

SMILES: N#Cc1c(N)sc2c(F)ccc(-c3c(Cl)c4c5c(nc(OC[C@@]67CCCN6C[C@H](F)C7)nc5c3F)N(C3CCN(C(=O)[C@H]5CCOC5)C3)CCO4)c12 (stereo partly drawn) [Compound 736, 2-amino-4-(8-chloro-10-fluoro-2-(((2R,7aS)-2-fluorotetrahydro-1H-pyrrolizin-7a(5H)-yl)methoxy)-4-(1-((S)-tetrahydrofuran-3-carbonyl)pyrrolidin-3-yl)-5,6-dihydro-4H-[1,4]oxazepino[5,6,7-de]quinazolin-9-yl)-7-fluorobenzo[b]thiophene-3-carbonitrile]
IC50 [1]: < 100 nM
IC50 [2]: < 500 nM
IC50 [3]: < 100 nM
IC50 [4]: < 100 nM
IC50 [5]: < 5000 nM
IC50 [6]: < 5000 nM
IC50 [7]: < 100 nM

SMILES: COC1(C)CC(N2CCOc3c(Cl)c(-c4ccc(F)c5sc(N)c(C#N)c45)c(F)c4nc(OC[C@@]56CCCN5C[C@H](F)C6)nc2c34)C1 (stereo partly drawn) [Compound 737, 2-amino-4-(8-chloro-10-fluoro-2-(((2R,7aS)-2-fluorotetrahydro-1H-pyrrolizin-7a(5H)-yl)methoxy)-4-(3-methoxy-3-methylcyclobutyl)-5,6-dihydro-4H-[1,4]oxazepino[5,6,7-de]quinazolin-9-yl)-7-fluorobenzo[b]thiophene-3-carbonitrile]
IC50 [1]: < 100 nM
IC50 [2]: < 500 nM
IC50 [3]: < 100 nM
IC50 [4]: < 100 nM
IC50 [5]: < 5000 nM
IC50 [6]: < 5000 nM
IC50 [7]: < 100 nM

The next lines start with results.

IC50 [1]: < 100 nM
IC50 [3]: < 100 nM
IC50 [4]: < 100 nM
IC50 [5]: < 5000 nM
IC50 [6]: < 5000 nM
IC50 [7]: < 100 nM
SMILES: N#Cc1c(N)sc2c(F)ccc(-c3c(Cl)c4c5c(nc(OC[C@@]67CCCN6C[C@H](F)C7)nc5c3F)N(CC(F)F)C(CC(F)F)CO4)c12 (stereo partly drawn) [Compound 701, 2-amino-4-(8-chloro-4,5-bis(2,2-difluoroethyl)-10-fluoro-2-(((2R,7aS)-2-fluorotetrahydro-1H-pyrrolizin-7a(5H)-yl)methoxy)-5,6-dihydro-4H-[1,4]oxazepino[5,6,7-de]quinazolin-9-yl)-7-fluorobenzo[b]thiophene-3-carbonitrile]
IC50 [2]: < 500 nM

IC50 [1]: < 100 nM
IC50 [3]: < 100 nM
IC50 [4]: < 100 nM
IC50 [5]: < 5000 nM
IC50 [6]: < 5000 nM
IC50 [7]: < 100 nM
SMILES: N#CCCC1CN(CC(F)F)c2nc(OC[C@@]34CCCN3C[C@H](F)C4)nc3c(F)c(-c4ccc(F)c5sc(N)c(C#N)c45)c(Cl)c(c23)O1 (stereo partly drawn) [Compound 704, 2-amino-4-(8-chloro-6-(2-cyanoethyl)-4-(2,2-difluoroethyl)-10-fluoro-2-(((2R,7aS)-2-fluorotetrahydro-1H-pyrrolizin-7a(5H)-yl)methoxy)-5,6-dihydro-4H-[1,4]oxazepino[5,6,7-de]quinazolin-9-yl)-7-fluorobenzo[b]thiophene-3-carbonitrile]
IC50 [2]: < 500 nM

IC50 [1]: < 100 nM
IC50 [3]: < 100 nM
IC50 [4]: < 100 nM
IC50 [5]: < 5000 nM
IC50 [6]: < 5000 nM
IC50 [7]: < 100 nM
SMILES: N#Cc1c(N)sc2c(F)ccc(-c3c(Cl)c4c5c(nc(OC[C@@]67CCCN6C[C@H](F)C7)nc5c3F)N(CCOC(F)F)CCO4)c12 [Compound 713, 2-amino-4-(8-chloro-4-(2-(difluoromethoxy)ethyl)-10-fluoro-2-(((2R,7aS)-2-fluorotetrahydro-1H-pyrrolizin-7a(5H)-yl)methoxy)-5,6-dihydro-4H-[1,4]oxazepino[5,6,7-de]quinazolin-9-yl)-7-fluorobenzo[b]thiophene-3-carbonitrile]
IC50 [2]: < 500 nM

IC50 [1]: < 100 nM
IC50 [3]: < 100 nM
IC50 [4]: < 100 nM
IC50 [5]: < 5000 nM
IC50 [6]: < 5000 nM
IC50 [7]: < 100 nM
SMILES: N#Cc1c(N)sc2c(F)ccc(-c3c(Cl)c4c5c(nc(OC[C@@]67CCCN6C[C@H](F)C7)nc5c3F)N([C@@H]3CCN(C=O)C3)CCO4)c12 [Compound 716, 2-amino-4-(8-chloro-10-fluoro-2-(((2R,7aS)-2-fluorotetrahydro-1H-pyrrolizin-7a(5H)-yl)methoxy)-4-((R)-1-formylpyrrolidin-3-yl)-5,6-dihydro-4H-[1,4]oxazepino[5,6,7-de]quinazolin-9-yl)-7-fluorobenzo[b]thiophene-3-carbonitrile]
IC50 [2]: < 500 nM

IC50 [1]: < 100 nM
IC50 [3]: < 100 nM
IC50 [4]: < 100 nM
IC50 [5]: < 5000 nM
IC50 [6]: < 5000 nM
IC50 [7]: < 100 nM
SMILES: N#Cc1c(N)sc2c(F)ccc(-c3c(Cl)c4c5c(nc(OC[C@@]67CCCN6C[C@H](F)C7)nc5c3F)N(C3CCC(F)(F)C3)CCO4)c12 (stereo partly drawn) [Compound 717, 2-amino-4-(8-chloro-4-(3,3-difluorocyclopentyl)-10-fluoro-2-(((2R,7aS)-2-fluorotetrahydro-1H-pyrrolizin-7a(5H)-yl)methoxy)-5,6-dihydro-4H-[1,4]oxazepino[5,6,7-de]quinazolin-9-yl)-7-fluorobenzo[b]thiophene-3-carbonitrile]
IC50 [2]: < 500 nM

IC50 [1]: < 100 nM
IC50 [3]: < 100 nM
IC50 [4]: < 100 nM
IC50 [5]: < 5000 nM
IC50 [6]: < 5000 nM
IC50 [7]: < 100 nM
SMILES: N#Cc1c(N)sc2c(F)ccc(-c3c(Cl)c4c5c(nc(OC[C@@]67CCCN6C[C@H](F)C7)nc5c3F)N(C3CCC(C(F)F)C3)CCO4)c12 (stereo partly drawn) [Compound 718, 2-amino-4-(8-chloro-4-(3-(difluoromethyl)cyclopentyl)-10-fluoro-2-(((2R,7aS)-2-fluorotetrahydro-1H-pyrrolizin-7a(5H)-yl)methoxy)-5,6-dihydro-4H-[1,4]oxazepino[5,6,7-de]quinazolin-9-yl)-7-fluorobenzo[b]thiophene-3-carbonitrile]
IC50 [2]: < 500 nM

IC50 [1]: < 100 nM
IC50 [3]: < 100 nM
IC50 [4]: < 100 nM
IC50 [5]: < 5000 nM
IC50 [6]: < 5000 nM
IC50 [7]: < 100 nM
SMILES: C=C[C@H]1COc2c(Cl)c(-c3ccc(F)c4sc(N)c(C#N)c34)c(F)c3nc(OC[C@@]45CCCN4C[C@H](F)C5)nc(c23)N1C1CCOC1 (stereo partly drawn) [Compound 726, 2-amino-4-((5S)-8-chloro-10-fluoro-2-(((2R,7aS)-2-fluorotetrahydro-1H-pyrrolizin-7a(5H)-yl)methoxy)-4-(tetrahydrofuran-3-yl)-5-vinyl-5,6-dihydro-4H-[1,4]oxazepino[5,6,7-de]quinazolin-9-yl)-7-fluorobenzo[b]thiophene-3-carbonitrile]
IC50 [2]: < 500 nM
